Drawing on paper PMC12472888 (Molecules, 2025), this text covers inhibition and IC50 for five molecules.

Holding throughout (assay type): biochemical
The target in one assay is T1, ovine COX-1 (Ovis aries, UniProt P05979).
T1 construct: gene PTGS1; homodimer
T1 sequence (P05979 25-600): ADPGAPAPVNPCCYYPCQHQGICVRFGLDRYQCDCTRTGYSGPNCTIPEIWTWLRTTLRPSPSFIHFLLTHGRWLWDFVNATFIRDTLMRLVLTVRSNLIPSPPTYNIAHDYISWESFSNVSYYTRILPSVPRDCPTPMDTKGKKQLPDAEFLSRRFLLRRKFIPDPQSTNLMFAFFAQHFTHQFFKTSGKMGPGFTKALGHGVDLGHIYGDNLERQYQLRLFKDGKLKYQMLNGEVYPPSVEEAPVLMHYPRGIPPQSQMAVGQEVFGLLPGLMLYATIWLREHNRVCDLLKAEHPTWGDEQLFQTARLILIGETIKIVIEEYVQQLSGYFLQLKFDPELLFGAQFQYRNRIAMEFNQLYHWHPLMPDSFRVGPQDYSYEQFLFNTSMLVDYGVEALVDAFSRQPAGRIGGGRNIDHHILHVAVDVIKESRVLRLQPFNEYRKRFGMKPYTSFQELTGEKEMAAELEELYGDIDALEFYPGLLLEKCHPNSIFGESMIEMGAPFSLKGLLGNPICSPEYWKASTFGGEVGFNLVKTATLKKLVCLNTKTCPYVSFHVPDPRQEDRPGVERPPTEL
Briefly: Cayman COX inhibitor screening kit, prostanoid enzyme immunoassay. The source says: Cayman COX inhibitor screening kit, prostanoid enzyme immunoassay on ovine COX-1

In assay [1] the target is T2, lipoxygenase type I-B from soybean (Glycine max, UniProt P08170).
T2 construct: gene LOX1.1; commercial native soybean enzyme (Sigma type I-B), full length
T2 sequence (P08170 1-839): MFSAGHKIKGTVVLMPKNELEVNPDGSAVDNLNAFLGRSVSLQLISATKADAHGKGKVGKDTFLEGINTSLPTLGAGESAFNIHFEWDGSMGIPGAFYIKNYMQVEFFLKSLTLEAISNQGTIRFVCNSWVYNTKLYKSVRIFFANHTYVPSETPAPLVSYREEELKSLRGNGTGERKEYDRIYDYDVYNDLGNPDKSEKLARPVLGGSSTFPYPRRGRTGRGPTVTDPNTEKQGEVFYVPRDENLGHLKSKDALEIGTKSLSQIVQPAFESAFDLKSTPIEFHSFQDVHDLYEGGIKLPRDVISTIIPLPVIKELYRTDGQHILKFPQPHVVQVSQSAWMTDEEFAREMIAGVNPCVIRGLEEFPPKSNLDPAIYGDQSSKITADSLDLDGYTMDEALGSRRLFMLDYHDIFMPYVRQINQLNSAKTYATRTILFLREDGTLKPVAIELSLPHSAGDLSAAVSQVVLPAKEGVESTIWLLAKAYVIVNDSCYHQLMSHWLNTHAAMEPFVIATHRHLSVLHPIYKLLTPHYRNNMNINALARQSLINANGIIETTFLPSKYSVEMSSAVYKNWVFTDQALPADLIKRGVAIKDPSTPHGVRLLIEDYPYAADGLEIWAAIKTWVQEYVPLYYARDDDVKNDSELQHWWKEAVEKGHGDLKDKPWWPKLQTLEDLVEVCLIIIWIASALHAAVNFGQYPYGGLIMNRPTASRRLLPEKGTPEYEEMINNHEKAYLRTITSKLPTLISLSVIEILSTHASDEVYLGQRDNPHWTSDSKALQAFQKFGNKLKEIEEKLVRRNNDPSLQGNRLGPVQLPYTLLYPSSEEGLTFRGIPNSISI
Briefly: UV absorbance at […] nm, linoleate oxidation.

In the next assay the target is T3, human recombinant COX-2 (Homo sapiens, UniProt P35354).
T3 construct: gene PTGS2; homodimer; docking used mouse COX-2 (not this entry)
T3 sequence (P35354 18-604): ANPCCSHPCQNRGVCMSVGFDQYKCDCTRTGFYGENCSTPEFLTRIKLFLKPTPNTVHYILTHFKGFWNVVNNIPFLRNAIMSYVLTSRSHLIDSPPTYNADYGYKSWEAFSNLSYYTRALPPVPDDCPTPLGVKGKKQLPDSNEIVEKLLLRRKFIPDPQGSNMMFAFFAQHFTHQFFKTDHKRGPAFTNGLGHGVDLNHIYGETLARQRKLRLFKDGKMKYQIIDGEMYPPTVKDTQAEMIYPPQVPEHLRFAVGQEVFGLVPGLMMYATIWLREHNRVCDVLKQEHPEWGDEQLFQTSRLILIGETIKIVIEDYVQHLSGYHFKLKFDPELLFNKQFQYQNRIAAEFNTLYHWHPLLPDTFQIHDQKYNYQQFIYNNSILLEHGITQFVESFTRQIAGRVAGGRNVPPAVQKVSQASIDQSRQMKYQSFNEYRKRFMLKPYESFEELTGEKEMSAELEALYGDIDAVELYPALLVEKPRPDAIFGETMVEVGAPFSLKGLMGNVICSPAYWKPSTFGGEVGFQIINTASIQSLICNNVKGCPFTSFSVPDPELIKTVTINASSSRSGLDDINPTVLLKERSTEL
Briefly: Cayman COX inhibitor screening kit, prostanoid enzyme immunoassay. The source says:
Cayman COX inhibitor screening kit, prostanoid enzyme immunoassay on human recombinant COX-2

Usually inhibition stands for how much of the control response was suppressed. As a reminder, the IC50 is the concentration that gives 50% inhibition. A higher IC50 goes with a need for much substance. With `CC(C)Cc1ccc(C(C)C(=O)NCCC(=O)OCCO[N+](=O)[O-])cc1` (racemic) [compound 5, 2-(Nitrooxy)ethyl-3-(2-(4-isobutylphenyl)propanamido)propanoate], the inhibition at 0.05 µM was 67% on ovine COX-1 and 95% on human recombinant COX-2. Also, the IC50 in assay [1] is 78 µM.
With `CC(C)Cc1ccc(C(C)C(=O)N2CCC[C@H]2C(=O)OCCO[N+](=O)[O-])cc1` (stereo partly shown) [compound 6, 2-(Nitrooxy)ethyl-1-(2-(4-isobutylphenyl)propanoyl)pyrrolidine-2-carboxylate], the IC50 in assay [1] is 264 µM.
Same read-out and setting: the figure for `COc1ccc2cc([C@H](C)C(=O)NCCC(=O)OCCO[N+](=O)[O-])ccc2c1` [compound 7, 2-(Nitrooxy)ethyl-3-(2-(6-methoxynaphthalen-2-yl)propanamido)propanoate] is 51 µM.
In the case of `COc1ccc2cc([C@H](C)C(=O)N3CCC[C@H]3C(=O)OCCO[N+](=O)[O-])ccc2c1` [compound 8, 2-(Nitrooxy)ethyl-1-(2-(6-methoxynaphthalen-2-yl)propanoyl)pyrrolidine-2-carboxylate], the half-inhibitory concentration (IC50) in assay [1] was found to be 184 µM.
For the molecule `COc1ccc2cc([C@H](C)C(=O)NCCC(=O)OCCO)ccc2c1` [compound 9, 2-Hydroxyethyl 3-(2-(6-methoxynaphthalen-2-yl)propanamido)propanoate], 0.05 µM produced 73% inhibition at ovine COX-1.
